{"source": "paper PMC5218480", "about": "(PLoS ONE, 2017)", "tested_on": "MV-4-11 cells", "assay": "Gene expression microarray analysis (Affymetrix PrimeView) and GSEA", "assay_type": "cell-based, human", "set-up": "RFU PODN (11730768_x_at) / Fold change /veh PODN (11730768_x_at) / RFU LINC00158 (11744669_a_at) / Fold change /veh LINC00158 (11744669_a_at) / RFU DUSP10 (11751237_a_at) / Fold change /veh DUSP10 (11751237_a_at) / RFU ID3 (11757404_x_at) / Fold change /veh ID3 (11757404_x_at) / RFU PLEKHG5 (11737974_s_at) / Fold change /veh PLEKHG5 (11737974_s_at) / RFU LRRC4B (11730491_at) / Fold change /veh LRRC4B (11730491_at) / RFU GIMAP4 (11747438_a_at) / Fold change /veh GIMAP4 (11747438_a_at) / RFU KRT8 (11758183_x_at) / Fold change /veh KRT8 (11758183_x_at) / RFU CNN1 (11734310_a_at) / Fold change /veh CNN1 (11734310_a_at) / RFU VPS37D (11726825_at) / Fold change /veh VPS37D (11726825_at) / RFU C10orf10 (11716522_x_at) / Fold change /veh C10orf10 (11716522_x_at) / RFU KIR2DL2 /// KIR2DL4 /// KIR2DL5A /// KIR2DL5B /// KIR2DS1 /// KIR2DS2 /// KIR2DS3 /// KIR2DS4 /// KIR3DL3 /// KIR3DL3 /// KIR3DS1 (11738374_at) / Fold change /veh KIR2DL2 /// KIR2DL4 /// KIR2DL5A /// KIR2DL5B /// KIR2DS1 /// KIR2DS2 /// KIR2DS3 /// KIR2DS4 /// KIR3DL3 /// KIR3DL3 /// KIR3DS1 (11738374_at) / RFU C1QL1 (11718748_at) / Fold change /veh C1QL1 (11718748_at) / RFU TMPRSS4 (11747572_a_at) / Fold change /veh TMPRSS4 (11747572_a_at) / RFU HAMP (11756126_x_at) / Fold change /veh HAMP (11756126_x_at) / RFU RNFT2 (11725882_a_at) / Fold change /veh RNFT2 (11725882_a_at) / RFU NR4A2 (11747474_a_at) / Fold change /veh NR4A2 (11747474_a_at) / RFU ABCC12 (11746883_a_at) / Fold change /veh ABCC12 (11746883_a_at) / RFU TMEM136 (11760407_x_at) / Fold change /veh TMEM136 (11760407_x_at) / RFU CLDN22 /// WWC2 (11732394_at) / Fold change /veh CLDN22 /// WWC2 (11732394_at) / RFU HLA-DPB1 (11760878_x_at) / Fold change /veh HLA-DPB1 (11760878_x_at) / RFU SPINT1 (11716480_a_at) / Fold change /veh SPINT1 (11716480_a_at) / RFU GAP43 (11754022_s_at) / Fold change /veh GAP43 (11754022_s_at) / RFU A4GNT (11735810_at) / Fold change /veh A4GNT (11735810_at) / RFU PRB3 (11715151_x_at) / Fold change /veh PRB3 (11715151_x_at) / RFU TUBB4B (11761932_at) / Fold change /veh TUBB4B (11761932_at) / RFU CAPN14 (11732068_a_at) / Fold change /veh CAPN14 (11732068_a_at) / RFU TMCC2 (11721928_a_at) / Fold change /veh TMCC2 (11721928_a_at) / RFU IRGQ (11745062_a_at) / Fold change /veh IRGQ (11745062_a_at) / RFU FAM174B (11720279_a_at) / Fold change /veh FAM174B (11720279_a_at) / RFU TMPRSS4 (11748680_a_at) / Fold change /veh TMPRSS4 (11748680_a_at) / RFU FAM212B (11763350_a_at) / Fold change /veh FAM212B (11763350_a_at) / RFU PLEKHG5 (11743358_a_at) / Fold change /veh PLEKHG5 (11743358_a_at) / RFU ZSCAN30 (11745921_a_at) / Fold change /veh ZSCAN30 (11745921_a_at) / RFU CMKLR1 (11741424_a_at) / Fold change /veh CMKLR1 (11741424_a_at) / RFU LOC101060620 /// MAPK8IP1 (11723275_at) / Fold change /veh LOC101060620 /// MAPK8IP1 (11723275_at) / RFU SPTSSB (11747773_x_at) / Fold change /veh SPTSSB (11747773_x_at) / RFU PRSS12 (11739890_at) / Fold change /veh PRSS12 (11739890_at) / RFU BIN1 (11741810_x_at) / Fold change /veh BIN1 (11741810_x_at) / RFU WNT11 (11732464_a_at) / Fold change /veh WNT11 (11732464_a_at) / RFU C10orf10 (11716521_a_at) / Fold change /veh C10orf10 (11716521_a_at) / RFU C5orf56 (11738089_at) / Fold change /veh C5orf56 (11738089_at) / RFU CYB561 (11721691_x_at) / Fold change /veh CYB561 (11721691_x_at) / RFU ANKRD19P (11752326_a_at) / Fold change /veh ANKRD19P (11752326_a_at) / RFU OR2T12 /// OR2T33 /// OR2T8 (11738714_s_at) / Fold change /veh OR2T12 /// OR2T33 /// OR2T8 (11738714_s_at) / RFU VCAN (11748164_a_at) / Fold change /veh VCAN (11748164_a_at) / RFU JSRP1 (11732532_at) / Fold change /veh JSRP1 (11732532_at) / RFU KRTAP10-11 (11738290_x_at) / Fold change /veh KRTAP10-11 (11738290_x_at) / RFU MYO3A (11730013_a_at) / Fold change /veh MYO3A (11730013_a_at) / RFU EBF3 (11725865_a_at) / Fold change /veh EBF3 (11725865_a_at) / RFU CAMK2N1 (11719241_x_at) / Fold change /veh CAMK2N1 (11719241_x_at) / RFU C5orf56 (11738088_a_at) / Fold change /veh C5orf56 (11738088_a_at) / RFU OLFML3 (11715873_a_at) / Fold change /veh OLFML3 (11715873_a_at) / RFU LOC100653217 /// NTM (11731650_a_at) / Fold change /veh LOC100653217 /// NTM (11731650_a_at) / RFU MAPK11 (11762145_a_at) / Fold change /veh MAPK11 (11762145_a_at) / RFU FIZ1 (11724087_x_at) / Fold change /veh FIZ1 (11724087_x_at) / RFU OASL (11726364_x_at) / Fold change /veh OASL (11726364_x_at) / RFU SOX15 (11748057_x_at) / Fold change /veh SOX15 (11748057_x_at) / RFU CD79A (11719716_a_at) / Fold change /veh CD79A (11719716_a_at) / RFU HIST1H1D (11736915_at) / Fold change /veh HIST1H1D (11736915_at) / RFU CASKIN2 (11723855_a_at) / Fold change /veh CASKIN2 (11723855_a_at) / RFU LOC730098 (11760151_x_at) / Fold change /veh LOC730098 (11760151_x_at) / RFU OR4N2 (11742367_at) / Fold change /veh OR4N2 (11742367_at) / RFU PRRT2 (11749266_a_at) / Fold change /veh PRRT2 (11749266_a_at) / RFU SNX32 (11753110_a_at) / Fold change /veh SNX32 (11753110_a_at) / RFU CDHR5 (11726645_a_at) / Fold change /veh CDHR5 (11726645_a_at) / RFU RCAN1 (11760418_a_at) / Fold change /veh RCAN1 (11760418_a_at) / RFU FAM167A (11723789_a_at) / Fold change /veh FAM167A (11723789_a_at) / RFU FAM26E (11764081_at) / Fold change /veh FAM26E (11764081_at) / RFU ISYNA1 (11749810_s_at) / Fold change /veh ISYNA1 (11749810_s_at) / RFU ACY1 (11761880_at) / Fold change /veh ACY1 (11761880_at) / RFU 11764098_at / Fold change /veh 11764098_at / RFU SAMD14 (11745864_x_at) / Fold change /veh SAMD14 (11745864_x_at) / RFU NPB (11741838_a_at) / Fold change /veh NPB (11741838_a_at) / RFU TMPRSS6 (11731388_a_at) / Fold change /veh TMPRSS6 (11731388_a_at) / RFU KRTAP10-2 (11738614_at) / Fold change /veh KRTAP10-2 (11738614_at) / RFU ARHGAP8 /// PRR5-ARHGAP8 (11727945_x_at) / Fold change /veh ARHGAP8 /// PRR5-ARHGAP8 (11727945_x_at) / RFU KRTAP5-7 /// NADSYN1 (11734609_at) / Fold change /veh KRTAP5-7 /// NADSYN1 (11734609_at) / RFU RASL12 (11751679_a_at) / Fold change /veh RASL12 (11751679_a_at) / RFU CDKN2B (11736163_a_at) / Fold change /veh CDKN2B (11736163_a_at) / RFU PRF1 (11729649_at) / Fold change /veh PRF1 (11729649_at) / RFU, ZNF638 /// ZNF638-IT1 / Fold change vs veh, ZNF638 /// ZNF638-IT1 / RFU, PANK3 / Fold change vs veh, PANK3 / RFU, SH3YL1 / Fold change vs veh, SH3YL1 / RFU, ZEB2 / Fold change vs veh, ZEB2 / RFU, NRIP1 / Fold change vs veh, NRIP1 / RFU, PTTG1IP / Fold change vs veh, PTTG1IP / RFU, CAPN2 / Fold change vs veh, CAPN2 / RFU, MED14 / Fold change vs veh, MED14 / RFU, SNORA58 / Fold change vs veh, SNORA58 / RFU, C1orf63 / Fold change vs veh, C1orf63 / RFU, LRRFIP1 / Fold change vs veh, LRRFIP1 / RFU, NDUFAF7 / Fold change vs veh, NDUFAF7 / RFU, SLC12A2 / Fold change vs veh, SLC12A2 / RFU, IBTK / Fold change vs veh, IBTK / RFU, ESF1 / Fold change vs veh, ESF1 / Fold change vs veh, TMEM50B / RFU, TAOK1 / Fold change vs veh, TAOK1 / RFU, ACBD3 / Fold change vs veh, ACBD3 / RFU, TMA16 / Fold change vs veh, TMA16 / RFU, RWDD3 / Fold change vs veh, RWDD3 / RFU, BCAT1 / Fold change vs veh, BCAT1 / RFU, EDEM3 / Fold change vs veh, EDEM3 / RFU, TMEM33 / Fold change vs veh, TMEM33 / RFU, WDR75 / Fold change vs veh, WDR75 / RFU, AHCTF1 / Fold change vs veh, AHCTF1 / RFU, TFRC / Fold change vs veh, TFRC / RFU, ZDHHC17 / Fold change vs veh, ZDHHC17 / RFU, NOM1 / Fold change vs veh, NOM1 / RFU, ARL8B / Fold change vs veh, ARL8B / RFU, ZBTB11 / Fold change vs veh, ZBTB11 / RFU, TAMM41 / Fold change vs veh, TAMM41 / RFU, KIAA1704 /// LOC100996395 / Fold change vs veh, KIAA1704 /// LOC100996395 / RFU, ING1 / Fold change vs veh, ING1 / RFU, TRMT61B / Fold change vs veh, TRMT61B / RFU, FUBP3 / Fold change vs veh, FUBP3 / RFU, TP53 / Fold change vs veh, TP53 / RFU, TNKS2 / Fold change vs veh, TNKS2 / RFU, ZFP14 / Fold change vs veh, ZFP14 / RFU, ACTR2 / Fold change vs veh, ACTR2 / RFU, PPP3R1 / Fold change vs veh, PPP3R1 / RFU, PIK3R1 / Fold change vs veh, PIK3R1 / RFU, HNRNPA1 / Fold change vs veh, HNRNPA1 / RFU, RNF170 / Fold change vs veh, RNF170 / RFU, ZNF28 / Fold change vs veh, ZNF28 / RFU, RNGTT / Fold change vs veh, RNGTT / RFU, OGT / Fold change vs veh, OGT / RFU, BRD1 / Fold change vs veh, BRD1 / RFU, MARS / Fold change vs veh, MARS / RFU, ZNF655 / Fold change vs veh, ZNF655 / RFU, FAHD1 / Fold change vs veh, FAHD1 / RFU, BDP1 / Fold change vs veh, BDP1 / RFU, LRRCC1 / Fold change vs veh, LRRCC1 / RFU, ARID1A / Fold change vs veh, ARID1A / RFU, ZNF146 / Fold change vs veh, ZNF146 / RFU, ZNF330 / Fold change vs veh, ZNF330 / RFU, GPN3 / Fold change vs veh, GPN3 / RFU, C9orf123 / Fold change vs veh, C9orf123 / RFU, N4BP2L2 / Fold change vs veh, N4BP2L2 / RFU, ARFIP1 / Fold change vs veh, ARFIP1 / RFU, FAM179B / Fold change vs veh, FAM179B / RFU, BCL10 / Fold change vs veh, BCL10 / RFU, UHRF1BP1L / Fold change vs veh, UHRF1BP1L / RFU, BET1 / Fold change vs veh, BET1 / RFU, CNOT2 / Fold change vs veh, CNOT2 / RFU, ZNF268 / Fold change vs veh, ZNF268 / Fold change vs veh, ZNF507 / RFU, DGCR2 / Fold change vs veh, DGCR2 / RFU, WDSUB1 / Fold change vs veh, WDSUB1 / Fold change vs veh, HSP90B1 /// MIR3652 / RFU, ADSS / Fold change vs veh, ADSS / RFU, GK / Fold change vs veh, GK / RFU, ZNF148 / Fold change vs veh, ZNF148 / RFU, TAF9 / Fold change vs veh, TAF9 / RFU, SLC1A5 / Fold change vs veh, SLC1A5 / RFU, SLMO2 / Fold change vs veh, SLMO2 / RFU, ABCC4 / Fold change vs veh, ABCC4 / RFU, LOC101060439 /// RAP1B / Fold change vs veh, LOC101060439 /// RAP1B / RFU, RFX7 / Fold change vs veh, RFX7 / RFU, GTPBP10 / Fold change vs veh, GTPBP10 / RFU, CNEP1R1 / Fold change vs veh, CNEP1R1 / RFU, BIVM-ERCC5 /// ERCC5 / Fold change vs veh, BIVM-ERCC5 /// ERCC5 / RFU, ILF3 / Fold change vs veh, ILF3 / RFU 11762660_at / Fold change /veh 11762660_at / RFU VCAN (11757783_s_at) / Fold change /veh VCAN (11757783_s_at) / RFU DDX43 (11728927_at) / Fold change /veh DDX43 (11728927_at) / RFU KRT8 (11758188_x_at) / Fold change /veh KRT8 (11758188_x_at) / RFU NKD1 (11759106_at) / Fold change /veh NKD1 (11759106_at) / RFU SRD5A1 (11742802_a_at) / Fold change /veh SRD5A1 (11742802_a_at) / RFU TPSAB1 /// TPSB2 (11721975_s_at) / Fold change /veh TPSAB1 /// TPSB2 (11721975_s_at) / RFU GSTM3 (11746129_a_at) / Fold change /veh GSTM3 (11746129_a_at) / RFU IL23R (11737362_x_at) / Fold change /veh IL23R (11737362_x_at) / RFU TMEM51 (11727254_a_at) / Fold change /veh TMEM51 (11727254_a_at) / RFU PIWIL2 (11732686_x_at) / Fold change /veh PIWIL2 (11732686_x_at) / RFU ORM1 (11744905_x_at) / Fold change /veh ORM1 (11744905_x_at) / RFU CCDC152 (11743942_at) / Fold change /veh CCDC152 (11743942_at) / RFU ECM1 (11717891_a_at) / Fold change /veh ECM1 (11717891_a_at) / RFU IL23R (11748794_a_at) / Fold change /veh IL23R (11748794_a_at) / RFU TNFAIP8L3 (11732012_x_at) / Fold change /veh TNFAIP8L3 (11732012_x_at) / RFU MBOAT4 (11741988_at) / Fold change /veh MBOAT4 (11741988_at) / RFU 11764193_at / Fold change /veh 11764193_at / RFU TMEM53 (11763286_at) / Fold change /veh TMEM53 (11763286_at) / RFU MAGEB2 (11727129_at) / Fold change /veh MAGEB2 (11727129_at) / RFU TMEM200A (11744735_a_at) / Fold change /veh TMEM200A (11744735_a_at) / RFU CCDC152 (11751479_a_at) / Fold change /veh CCDC152 (11751479_a_at) / RFU FAM211A (11726209_a_at) / Fold change /veh FAM211A (11726209_a_at) / RFU RGS16 (11746705_a_at) / Fold change /veh RGS16 (11746705_a_at) / RFU VCAN (11755009_s_at) / Fold change /veh VCAN (11755009_s_at) / RFU RHOB (11743442_s_at) / Fold change /veh RHOB (11743442_s_at) / RFU RGS16 (11720943_a_at) / Fold change /veh RGS16 (11720943_a_at) / RFU RGS16 (11720944_at) / Fold change /veh RGS16 (11720944_at) / RFU, VPS4B / Fold change vs veh, VPS4B / RFU, CREB1 / Fold change vs veh, CREB1 / RFU, DNAJC13 / Fold change vs veh, DNAJC13 / RFU, GNAQ / Fold change vs veh, GNAQ / RFU, CDK5R1 / Fold change vs veh, CDK5R1 / RFU, ZRANB3 / Fold change vs veh, ZRANB3 / RFU, CUL4A / Fold change vs veh, CUL4A / RFU, CCNY / Fold change vs veh, CCNY / RFU, UFL1 / Fold change vs veh, UFL1 / RFU, COG3 / Fold change vs veh, COG3 / RFU, DIAPH2 / Fold change vs veh, DIAPH2 / RFU, SKA2 / Fold change vs veh, SKA2 / RFU, AFF3 / Fold change vs veh, AFF3 / RFU, LMF1 / Fold change vs veh, LMF1 / RFU, IPO11 / Fold change vs veh, IPO11 / RFU, DFFB / Fold change vs veh, DFFB / RFU, FOXP1 / Fold change vs veh, FOXP1 / RFU, CARD8 / Fold change vs veh, CARD8 / RFU, STRN3 / Fold change vs veh, STRN3 / RFU, ADK / Fold change vs veh, ADK / RFU, RASSF2 / Fold change vs veh, RASSF2 / RFU, WIPF1 / Fold change vs veh, WIPF1 / RFU, LARP1B / Fold change vs veh, LARP1B / RFU, RASA1 / Fold change vs veh, RASA1 / RFU, RB1 / Fold change vs veh, RB1 / RFU, PPFIA1 / Fold change vs veh, PPFIA1 / RFU, MAT2A / Fold change vs veh, MAT2A / RFU, CCT5 / Fold change vs veh, CCT5 / RFU, WDR92 / Fold change vs veh, WDR92 / RFU, CUX1 / Fold change vs veh, CUX1 / RFU, TTC7A / Fold change vs veh, TTC7A / RFU, TMEM135 / Fold change vs veh, TMEM135 / RFU, DEPTOR / Fold change vs veh, DEPTOR / RFU, CPM / Fold change vs veh, CPM / RFU, DNAJB6 / Fold change vs veh, DNAJB6 / RFU, CACNA2D3 / Fold change vs veh, CACNA2D3 / RFU, DTX4 / Fold change vs veh, DTX4 / RFU, TFCP2 / Fold change vs veh, TFCP2 / RFU, GMCL1 /// GMCL1P1 / Fold change vs veh, GMCL1 /// GMCL1P1 / RFU, AEBP2 / Fold change vs veh, AEBP2 / RFU, SNHG1 /// SNORD22 /// SNORD25 /// SNORD26 /// SNORD27 /// SNORD28 /// SNORD29 /// SNORD31 / Fold change vs veh, SNHG1 /// SNORD22 /// SNORD25 /// SNORD26 /// SNORD27 /// SNORD28 /// SNORD29 /// SNORD31 / Fold change (Aza/veh), C12orf56 (ProbeSet 11735607_a_at) / Fold change (ACY-1035/veh), C12orf56 (ProbeSet 11735607_a_at) / Fold change (Aza/veh), FGFR1OP (ProbeSet 11751329_s_at) / Fold change (ACY-1035/veh), FGFR1OP (ProbeSet 11751329_s_at) / Fold change (Aza/veh), VPS36 (ProbeSet 11739960_a_at) / Fold change (ACY-1035/veh), VPS36 (ProbeSet 11739960_a_at) / RFU SYPL1 (11715823_x_at) / Fold change /veh SYPL1 (11715823_x_at) / RFU IGFBP7 (11715501_s_at) / Fold change /veh IGFBP7 (11715501_s_at) / RFU REEP3 (11722064_at) / Fold change /veh REEP3 (11722064_at) / RFU IGLL1 (11728026_x_at) / Fold change /veh IGLL1 (11728026_x_at): dose or concentration left out as unconfirmed", "conditions": "ProbeSet 11757113_a_at; LIST D", "data": [{"smiles": "Nc1ncn([C@@H]2O[C@H](CO)[C@@H](O)[C@H]2O)c(=O)n1", "note": "[azacitidine]", "values": [{"measurement": "Fold change vs veh, SNHG1 /// SNORD22 /// SNORD25 /// SNORD26 /// SNORD27 /// SNORD28 /// SNORD29 /// SNORD31", "value": 0.81}]}]}
